Data set [1] can be described thus: Storage stability: assay of Aztreonam by HPLC after storage. Format: physicochemical. On the procedure: (§1) The Aztreonam L-lysine obtained using these methods was stable in the sense that during 3 months at 2-8° C.:
1. the assay of Aztreonam was maintained constant in the limit 60-66%; and The assay of Aztreonam Lysine salt using the HPLC method was determined as follows: a. Dissolving Aztreonam Lysine salt sample in a mixture of 0.02 M KH2PO4 buffer solution (pH adjusted 3.0 with 25 w/w % phosphoric acid) and methanol (80:20) diluent, b. Injecting the sample solution (ca. 10 μl) into a 50.0 mm×4.6 mm, 3 μm RP-18 HPLC column, c. Isocratic eluting at 1.5 ml/min with a mixture of 0.02 M KH2PO4 buffer solution (pH adjusted 3.0 with 25 w/w % phosphoric acid) and methanol in a 83:17 v/v % ratio. d. Measuring of the amounts of each impurity at 270 nm wavelength with a UV detector and appropriate recording device. e. Calculating of the assay referring to the Aztreonam working standard at a concentration of 100 [g/ml.
In the above method, Aztreonam has a retention time of about 2.3 minutes

A short description of data set [2]: Storage stability: impurity content by HPLC after storage. Type of data set: physicochemical. On the procedure:
as §1
2. no impurity exceed 0.3 area %.
The impurity content of Aztreonam lysine salt using the HPLC method is determined as follows:
a. Aztreonam Lysine salt sample is dissolved in 0.02 M KH2PO4 buffer solution (pH adjusted 2.0 with 25 w/w % phosphoric acid) diluent,
b. The sample solution (ca. 10 μl) is injected into a 100.0 mm×4.0 mm, 3 μm RP-1 8 HPLC column,
c. Gradient eluting with a mixture of 0.02 M KH2PO4 buffer solution (pH adjusted 3.0 with 25 w/w % phosphoric acid) (A) and acetonitrile (B) according to the following profile:
d. The amounts of each impurity was measured at 230 nm wavelength with a UV detector and appropriate recording device.
e. The amount of each impurity was calculated referring to an Aztreonam working standard at a concentration of […].
In the above method, Aztreonam has a retention time of about 10.2 minutes.

The mark [3] stands for this setting: after storage for three months at about 2-8° C.

Bounds are passed on as bounds.

Take `C[C@H]1[C@H](NC(=O)/C(=N\OC(C)(C)C(=O)O)c2csc(N)n2)C(=O)N1S(=O)(=O)O.NCCCC[C@H](N)C(=O)O` [Example 2, Aztreonam L-lysine salt]: in data set [1] (setting [3]), the “maintains at least about ... of the Aztreonam” value is “at least 63 weight %”. The “does not contain any impurity exceeding” value in data set [2] (setting [3]) is reported as at most 0.3 area %.
As to `C[C@H]1[C@H](NC(=O)/C(=N\OC(C)(C)C(=O)O)c2csc(N)n2)C(=O)N1S(=O)(=O)O.NCCCC[C@H](N)C(=O)O` [Aztreonam L-lysine], the “assay of Aztreonam maintained constant in the limit” value in data set [1] (during 3 months at 2-8° C.) was 60-66%. Further, the “no impurity exceed (largest single impurity)” value in data set [2] (during 3 months at 2-8° C.) was at most 0.3 area %.

(Values after US20070167424A1, “Aztreonam L-lysine and methods for the preparation thereof” (priority 2003, published 2007).)
